This is an account of results in patent US20130189352A1 (ZHEJIANG UNIVERSITY, priority 2011, published 2013).

Data set [1] concerns doxorubicin-resistant human breast cancer MCF-7 (MCF-7/ADR). The experiment in a line: MTT cytotoxicity test, MCF-7/ADR. The class given is cell-based. The settings on record: NCI/ADR-RES, read-out: IC50 MCF-7/ADR. As to the method: (§1) The cells suspension solution was seeded in 96-well plates with 100 μL solution per well containing 5000-10000 cells. […] The drug-loaded liposomes and doxorubicin were separately solved in saline solutions. […] These different formulations were added 25 μl per well in increasing concentrations to the wells of the 96-well plate. The cells were allowed to grow for 24 hours before adding 31.5 μl MTT (5 mg/mL) per well. Finally, about 4 hours later, all of the culture medium was removed and the precipitates were dissolved in 200 μl dimethyl sulfoxide (DMSO). […] The above tests were repeated three times for each group and each concentration has four wells. […] The IC50 values were calculated by IC50.exe software.
For orientation: Tetrazolium dyes change colour on reduction, which living cells bring about.

The subject of data set [2] is doxorubicin-resistance human promyelocytic leukemia cell (HL60/ADR). The experiment in a line: MTT cytotoxicity test, HL60/ADR. In kind it is cell-based. The settings on record: read-out: IC50 HL60/ADR. How it is done: as §1
For data set [3], the system named is human promyelocytic leukemia cells (HL60). The experiment in a line: MTT cytotoxicity test, HL60. The class given is cell-based. The settings on record: read-out: IC50 HL60. As to the method:
as §1

Data set [4] relates to human breast cancer cells (MCF-7). Briefly: MTT cytotoxicity test, MCF-7. In kind it is cell-based. The settings on record: read-out: IC50 MCF-7. As to the method: as §1
The conditions of data set [5]: cited from earlier work.
[6] abbreviates: MTT, 24 hours drug exposure, concentrations based on the amount of doxorubicin.

In brackets after ≈: the same amount, converted by molar mass. Where two headings read alike, the source gives them in different places.

`CCN(CC)CCCC(C)Nc1ccnc2cc(Cl)ccc12` (stereo not drawn) [Control 2, chloroquine]: the IC50 was 23.3 µg/mL (≈ 72.8 µM) in data set [1] (24 h); 11.2 µg/mL (≈ 35 µM) in data set [2] (24 h); 17.3 µg/mL (≈ 54.1 µM) in data set [3] (HL-60, 24 h); 18.1 µg/mL (≈ 56.6 µM) in data set [4] (MCF7, 24 h).
In the case of `COc1cccc2c1C(=O)c1c(O)c3c(c(O)c1C2=O)C[C@@](O)(C(=O)CO)C[C@@H]3O[C@H]1C[C@H](N)[C@H](O)[C@H](C)O1` [Control 1, doxorubicin], the IC50 turned out to be 15.7 µg/mL (≈ 28.9 µM) in data set [1] (setting [6]); 13.6 µg/mL (≈ 25 µM) in data set [2] (setting [6]); 0.4 µg/mL (≈ 0.736 µM) in data set [3] (HL-60, MTT, 24 hours drug exposure, concentrations based on the amount of doxorubicin); 0.4 µg/mL (≈ 0.736 µM) in data set [4] (MCF7, MTT, 24 hours drug exposure, concentrations based on the amount of doxorubicin). In addition, in data set [5], the PKa is recorded as 4.0.
